Test results reported in PMC8429728, “TNK1 is a ubiquitin-binding and 14-3-3-regulated kinase that can be targeted to block tumor growth” (Nature Communications, 2021).
Like-named read-outs stand apart in the source and are kept apart here.

How the values were obtained:
Experiment in all cases: biochemical
Parameters in all cases: Reaction Biology 371-kinase panel at Km ATP, per cent enzyme activity relative to DMSO, single dose in duplicate
Conditions in all cases: duplicate measurements, Km ATP
FGFR3 = FGFR3 (Homo sapiens, UniProt P22607)
FGFR3, sequence (P22607 whole entry): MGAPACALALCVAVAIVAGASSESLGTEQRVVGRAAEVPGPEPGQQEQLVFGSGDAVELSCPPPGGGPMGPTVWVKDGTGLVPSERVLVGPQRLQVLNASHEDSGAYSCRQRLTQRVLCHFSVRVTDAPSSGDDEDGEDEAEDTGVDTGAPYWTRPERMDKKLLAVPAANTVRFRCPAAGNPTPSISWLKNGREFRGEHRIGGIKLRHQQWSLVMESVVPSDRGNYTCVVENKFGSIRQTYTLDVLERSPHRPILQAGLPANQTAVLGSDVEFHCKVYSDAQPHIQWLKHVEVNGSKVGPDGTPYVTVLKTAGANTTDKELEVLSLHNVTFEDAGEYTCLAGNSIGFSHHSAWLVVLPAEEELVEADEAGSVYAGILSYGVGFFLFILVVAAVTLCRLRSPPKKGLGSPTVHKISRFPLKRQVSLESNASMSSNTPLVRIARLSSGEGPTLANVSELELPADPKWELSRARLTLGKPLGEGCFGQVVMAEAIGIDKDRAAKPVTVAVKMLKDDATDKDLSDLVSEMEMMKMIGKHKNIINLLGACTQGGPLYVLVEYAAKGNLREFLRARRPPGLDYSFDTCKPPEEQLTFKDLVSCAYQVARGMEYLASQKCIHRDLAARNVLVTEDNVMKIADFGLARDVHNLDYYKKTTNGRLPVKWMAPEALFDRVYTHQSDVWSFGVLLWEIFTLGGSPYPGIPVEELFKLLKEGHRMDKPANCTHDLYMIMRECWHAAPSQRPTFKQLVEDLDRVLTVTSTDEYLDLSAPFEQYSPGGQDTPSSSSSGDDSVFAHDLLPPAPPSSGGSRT
Method in brief: (§1)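 Activity of each kinase, normalised to DMSO-treated controls, served as the read-out. The inhibitor was tested at 300 nM against 371 kinases in vitro. Curves fitted by variable-slope sigmoidal dose-response, constrained to a bottom of 0, gave IC50.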

CLK2 = CLK2 (Homo sapiens, UniProt P49760)
Method in brief: as §1

JNK3 = biological target: T1, JNK3 (Homo sapiens, UniProt P53779)
T1 construct: gene MAPK10
T1 sequence (P53779 whole entry): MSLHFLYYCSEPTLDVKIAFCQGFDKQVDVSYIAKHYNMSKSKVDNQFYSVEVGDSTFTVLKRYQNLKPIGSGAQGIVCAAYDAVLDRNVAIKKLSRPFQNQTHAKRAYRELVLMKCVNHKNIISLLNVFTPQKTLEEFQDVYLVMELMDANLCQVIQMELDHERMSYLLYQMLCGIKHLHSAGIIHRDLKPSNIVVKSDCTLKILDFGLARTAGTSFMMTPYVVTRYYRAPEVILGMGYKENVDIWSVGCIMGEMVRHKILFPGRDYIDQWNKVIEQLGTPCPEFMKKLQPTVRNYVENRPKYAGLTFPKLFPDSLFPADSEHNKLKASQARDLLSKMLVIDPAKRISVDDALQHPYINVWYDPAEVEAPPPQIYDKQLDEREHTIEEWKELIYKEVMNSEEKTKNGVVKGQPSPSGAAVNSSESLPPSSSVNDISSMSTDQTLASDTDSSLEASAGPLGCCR
Method in brief: as §1

PKN2/PRK2 = PKN2/PRK2 (Homo sapiens, UniProt Q16513)
PKN2/PRK2, sequence (Q16513 whole entry): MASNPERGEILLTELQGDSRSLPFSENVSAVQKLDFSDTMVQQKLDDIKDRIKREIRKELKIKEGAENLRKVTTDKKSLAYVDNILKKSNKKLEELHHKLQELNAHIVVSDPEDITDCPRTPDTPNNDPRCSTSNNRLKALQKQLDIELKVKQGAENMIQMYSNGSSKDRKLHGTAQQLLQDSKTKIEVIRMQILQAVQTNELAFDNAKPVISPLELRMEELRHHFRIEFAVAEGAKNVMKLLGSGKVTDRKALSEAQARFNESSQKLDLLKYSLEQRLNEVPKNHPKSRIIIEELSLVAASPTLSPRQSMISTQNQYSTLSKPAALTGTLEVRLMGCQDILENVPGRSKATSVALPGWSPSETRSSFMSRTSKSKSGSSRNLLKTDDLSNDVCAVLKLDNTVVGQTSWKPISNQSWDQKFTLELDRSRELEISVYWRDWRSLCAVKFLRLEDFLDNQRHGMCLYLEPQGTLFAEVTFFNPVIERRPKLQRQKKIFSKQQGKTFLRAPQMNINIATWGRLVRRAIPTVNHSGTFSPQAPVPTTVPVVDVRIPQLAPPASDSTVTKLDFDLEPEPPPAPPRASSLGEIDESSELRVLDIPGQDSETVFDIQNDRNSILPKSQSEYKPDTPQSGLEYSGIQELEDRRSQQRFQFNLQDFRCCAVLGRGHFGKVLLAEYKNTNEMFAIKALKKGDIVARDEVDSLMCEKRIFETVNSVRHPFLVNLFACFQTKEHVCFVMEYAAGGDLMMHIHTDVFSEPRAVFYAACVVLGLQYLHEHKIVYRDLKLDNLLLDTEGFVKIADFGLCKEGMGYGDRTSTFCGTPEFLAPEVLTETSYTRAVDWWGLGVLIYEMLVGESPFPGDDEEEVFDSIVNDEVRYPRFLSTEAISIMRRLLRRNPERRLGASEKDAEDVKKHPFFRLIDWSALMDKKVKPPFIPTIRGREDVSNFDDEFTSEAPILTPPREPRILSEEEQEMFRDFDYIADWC
Method in brief: as §1

MEK5 = biological target: T2, MEK5 (Homo sapiens, UniProt Q13163)
T2 construct: gene MAP2K5
Method in brief: as §1

PKCepsilon = biological target: T3, PKCepsilon (Homo sapiens, UniProt Q02156)
T3 construct: gene PRKCE
Method in brief: as §1

FLT4/VEGFR3 = FLT4/VEGFR3 (Homo sapiens, UniProt P35916)
FLT4/VEGFR3, sequence (P35916 whole entry): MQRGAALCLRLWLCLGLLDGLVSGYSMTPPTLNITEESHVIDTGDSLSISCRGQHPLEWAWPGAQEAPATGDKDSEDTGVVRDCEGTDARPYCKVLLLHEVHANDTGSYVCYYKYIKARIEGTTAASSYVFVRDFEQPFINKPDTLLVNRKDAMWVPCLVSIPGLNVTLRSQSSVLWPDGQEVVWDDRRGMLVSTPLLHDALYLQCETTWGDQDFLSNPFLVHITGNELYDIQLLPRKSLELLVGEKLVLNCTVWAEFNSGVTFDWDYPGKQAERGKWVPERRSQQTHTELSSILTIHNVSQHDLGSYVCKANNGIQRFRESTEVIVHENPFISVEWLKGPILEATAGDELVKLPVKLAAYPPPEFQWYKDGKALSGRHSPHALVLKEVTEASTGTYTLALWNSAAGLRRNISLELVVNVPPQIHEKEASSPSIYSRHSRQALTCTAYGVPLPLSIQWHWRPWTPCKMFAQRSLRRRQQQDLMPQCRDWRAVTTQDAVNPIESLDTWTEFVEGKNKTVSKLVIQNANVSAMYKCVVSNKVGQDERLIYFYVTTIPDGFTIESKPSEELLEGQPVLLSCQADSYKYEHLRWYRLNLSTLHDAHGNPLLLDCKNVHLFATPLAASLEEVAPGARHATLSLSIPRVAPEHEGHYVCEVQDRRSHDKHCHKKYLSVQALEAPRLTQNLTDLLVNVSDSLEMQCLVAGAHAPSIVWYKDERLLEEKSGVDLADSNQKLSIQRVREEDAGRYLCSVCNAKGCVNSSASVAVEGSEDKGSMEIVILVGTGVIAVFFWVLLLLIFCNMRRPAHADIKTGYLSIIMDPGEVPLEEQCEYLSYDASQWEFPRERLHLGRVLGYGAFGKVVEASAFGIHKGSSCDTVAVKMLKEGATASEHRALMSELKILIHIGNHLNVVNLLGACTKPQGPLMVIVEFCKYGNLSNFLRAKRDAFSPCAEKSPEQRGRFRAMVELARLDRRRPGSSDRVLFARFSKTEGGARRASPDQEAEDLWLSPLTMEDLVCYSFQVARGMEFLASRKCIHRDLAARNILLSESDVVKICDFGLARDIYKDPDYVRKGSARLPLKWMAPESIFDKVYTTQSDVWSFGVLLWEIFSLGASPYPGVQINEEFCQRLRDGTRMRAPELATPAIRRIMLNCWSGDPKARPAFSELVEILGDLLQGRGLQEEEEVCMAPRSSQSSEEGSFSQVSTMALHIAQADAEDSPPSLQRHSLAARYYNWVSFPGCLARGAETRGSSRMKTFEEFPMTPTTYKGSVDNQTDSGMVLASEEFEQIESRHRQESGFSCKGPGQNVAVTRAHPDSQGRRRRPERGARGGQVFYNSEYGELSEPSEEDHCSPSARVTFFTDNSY
Method in brief: as §1

CHK2 = biological target: T4, CHK2 (Homo sapiens, UniProt O96017)
T4 construct: gene CHEK2
T4 sequence (O96017 whole entry): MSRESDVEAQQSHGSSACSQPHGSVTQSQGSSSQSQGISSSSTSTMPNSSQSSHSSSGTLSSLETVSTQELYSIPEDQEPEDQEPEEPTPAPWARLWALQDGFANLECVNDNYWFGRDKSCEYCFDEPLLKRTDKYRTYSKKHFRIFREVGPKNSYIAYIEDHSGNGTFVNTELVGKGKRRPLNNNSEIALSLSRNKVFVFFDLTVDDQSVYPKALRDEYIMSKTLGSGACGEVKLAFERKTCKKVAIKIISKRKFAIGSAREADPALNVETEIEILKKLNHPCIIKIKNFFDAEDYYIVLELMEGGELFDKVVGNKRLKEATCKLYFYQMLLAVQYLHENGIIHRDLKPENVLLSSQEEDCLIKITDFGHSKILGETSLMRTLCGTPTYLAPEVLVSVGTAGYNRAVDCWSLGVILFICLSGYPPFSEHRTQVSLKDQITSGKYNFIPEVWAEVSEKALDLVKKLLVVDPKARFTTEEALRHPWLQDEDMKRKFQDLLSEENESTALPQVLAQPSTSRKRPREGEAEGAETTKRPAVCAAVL
Method in brief: as §1

EPHA8 = EPHA8 (Homo sapiens, UniProt P29322)
Method in brief: as §1

ULK3 = ULK3 (Homo sapiens, UniProt Q6PHR2)
Method in brief: as §1

CK1a1 = biological target: T5, CK1a1 (Homo sapiens, UniProt P48729)
T5 construct: gene CSNK1A1
Method in brief: as §1

CDK8/cyclin C = CDK8/cyclin C (Homo sapiens, UniProt P49336)
Method in brief: as §1

p70S6K/RPS6KB1 = p70S6K/RPS6KB1 (Homo sapiens, UniProt P23443)
Method in brief: as §1

MYLK3 = MYLK3 (Homo sapiens, UniProt Q32MK0)
MYLK3, sequence (Q32MK0 whole entry): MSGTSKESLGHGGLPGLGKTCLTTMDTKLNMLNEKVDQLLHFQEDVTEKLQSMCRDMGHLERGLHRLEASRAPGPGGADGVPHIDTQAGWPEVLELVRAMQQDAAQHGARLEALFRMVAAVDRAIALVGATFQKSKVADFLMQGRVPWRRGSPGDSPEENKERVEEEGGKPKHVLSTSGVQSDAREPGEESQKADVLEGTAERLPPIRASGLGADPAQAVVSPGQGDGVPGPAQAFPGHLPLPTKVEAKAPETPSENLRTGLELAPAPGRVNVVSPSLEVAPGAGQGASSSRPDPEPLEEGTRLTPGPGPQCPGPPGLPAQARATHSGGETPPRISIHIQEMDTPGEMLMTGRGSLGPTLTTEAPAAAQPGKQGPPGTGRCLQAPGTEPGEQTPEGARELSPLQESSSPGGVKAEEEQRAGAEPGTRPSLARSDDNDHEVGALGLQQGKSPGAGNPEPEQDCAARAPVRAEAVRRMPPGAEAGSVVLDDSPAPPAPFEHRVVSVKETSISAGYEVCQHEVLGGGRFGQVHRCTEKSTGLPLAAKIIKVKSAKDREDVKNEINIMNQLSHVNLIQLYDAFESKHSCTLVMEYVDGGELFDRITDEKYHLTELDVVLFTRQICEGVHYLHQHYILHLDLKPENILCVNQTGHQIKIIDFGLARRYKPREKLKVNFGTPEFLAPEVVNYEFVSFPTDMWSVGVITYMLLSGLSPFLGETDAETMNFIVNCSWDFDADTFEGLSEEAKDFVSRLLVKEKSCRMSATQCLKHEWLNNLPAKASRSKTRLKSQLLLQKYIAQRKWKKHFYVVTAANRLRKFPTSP
Method in brief: as §1

TIE2/TEK = TIE2/TEK (Homo sapiens, UniProt Q02763)
Method in brief: as §1

P38b/MAPK11 = P38b/MAPK11 (Homo sapiens, UniProt Q15759)
Method in brief: as §1

[1] = read-out: % Enzyme Activity (relative to DMSO controls) / TP-0005801 (0.3µM) / Data 1
[2] = read-out: % Enzyme Activity (relative to DMSO controls) / TP-0005801 (0.3µM) / Data 2

remaining activity at 0.3 µM (FGFR3; [1]): 107%
remaining activity at 0.3 µM (FGFR3; [2]): 105%
remaining activity at 0.3 µM (CLK2; [1]): 69.8%
remaining activity at 0.3 µM (CLK2; [2]): 68.6%
remaining activity at 0.3 µM (JNK3; [1]): 81%
remaining activity at 0.3 µM (JNK3; [2]): 80.7%
remaining activity at 0.3 µM (PKN2/PRK2; [1]): 97.2%
remaining activity at 0.3 µM (PKN2/PRK2; [2]): 95.9%
remaining activity at 0.3 µM (MEK5; [1]): 110%
remaining activity at 0.3 µM (MEK5; [2]): 108%
remaining activity at 0.3 µM (PKCepsilon; [1]): 93.6%
remaining activity at 0.3 µM (PKCepsilon; [2]): 93.3%
remaining activity at 0.3 µM (FLT4/VEGFR3; [1]): 35.2%
remaining activity at 0.3 µM (FLT4/VEGFR3; [2]): 35.1%
remaining activity at 0.3 µM (CHK2; [1]): 103%
remaining activity at 0.3 µM (CHK2; [2]): 102%
remaining activity at 0.3 µM (EPHA8; [1]): 95.1%
remaining activity at 0.3 µM (EPHA8; [2]): 93.8%
remaining activity at 0.3 µM (ULK3; [1]): 43.8%
remaining activity at 0.3 µM (ULK3; [2]): 40.1%
remaining activity at 0.3 µM (CK1a1; [1]): 94.3%
remaining activity at 0.3 µM (CK1a1; [2]): 93.1%
remaining activity at 0.3 µM (CDK8/cyclin C; [1]): 31.9%
remaining activity at 0.3 µM (CDK8/cyclin C; [2]): 31.6%
remaining activity at 0.3 µM (p70S6K/RPS6KB1; [1]): 105%
remaining activity at 0.3 µM (p70S6K/RPS6KB1; [2]): 102%
remaining activity at 0.3 µM (MYLK3; [1]): 110%
remaining activity at 0.3 µM (MYLK3; [2]): 109%
remaining activity at 0.3 µM (TIE2/TEK; [1]): 83.6%
remaining activity at 0.3 µM (TIE2/TEK; [2]): 80.7%
remaining activity at 0.3 µM (P38b/MAPK11; [1]): 102%
remaining activity at 0.3 µM (P38b/MAPK11; [2]): 101%
SMILES: COc1cc(N2CCN(C)CC2)c(C)cc1Nc1ncc(Br)c(Nc2cccnc2N(C)C)n1 [TP-5801]
